What was measured:
Type in all cases: cell-based
Conditions in all cases: 1 nM mibolerone, 24 hours
AR [1] = target: T1, AR (Homo sapiens, UniProt P10275, T878A); experiment: PSAenh(ARE)-E4-LUC luciferase reporter assay in LNCaP cells; set-up: endogenous in cells
T1 sequence (P10275 1-920 T878A): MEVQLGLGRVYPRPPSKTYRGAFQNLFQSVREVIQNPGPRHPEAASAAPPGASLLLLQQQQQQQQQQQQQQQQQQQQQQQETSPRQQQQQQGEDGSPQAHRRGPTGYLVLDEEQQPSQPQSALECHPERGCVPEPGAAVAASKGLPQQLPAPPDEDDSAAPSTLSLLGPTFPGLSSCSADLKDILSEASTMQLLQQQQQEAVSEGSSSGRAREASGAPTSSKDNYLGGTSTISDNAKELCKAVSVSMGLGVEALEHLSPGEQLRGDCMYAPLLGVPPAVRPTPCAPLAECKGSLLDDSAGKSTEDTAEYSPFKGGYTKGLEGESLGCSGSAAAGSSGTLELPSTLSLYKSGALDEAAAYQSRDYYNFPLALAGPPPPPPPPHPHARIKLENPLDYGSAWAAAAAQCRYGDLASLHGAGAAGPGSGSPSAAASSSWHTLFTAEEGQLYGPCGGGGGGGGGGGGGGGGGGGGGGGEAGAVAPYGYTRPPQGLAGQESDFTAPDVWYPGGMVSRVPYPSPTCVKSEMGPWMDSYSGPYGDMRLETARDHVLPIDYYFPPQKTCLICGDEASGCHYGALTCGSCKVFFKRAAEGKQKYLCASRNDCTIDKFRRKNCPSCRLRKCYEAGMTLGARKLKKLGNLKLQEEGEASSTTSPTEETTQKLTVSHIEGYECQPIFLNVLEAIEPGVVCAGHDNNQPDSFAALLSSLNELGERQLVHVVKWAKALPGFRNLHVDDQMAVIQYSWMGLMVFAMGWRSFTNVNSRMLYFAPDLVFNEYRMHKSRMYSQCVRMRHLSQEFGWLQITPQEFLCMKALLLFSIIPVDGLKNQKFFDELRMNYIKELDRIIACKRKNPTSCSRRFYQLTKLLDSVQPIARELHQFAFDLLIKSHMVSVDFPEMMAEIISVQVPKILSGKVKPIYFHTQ
Description: The cells were harvested after an additional 24 hours. The transfection efficiency was typically 50-70%.

AR [2] = target: T1, AR; experiment: PSA mRNA expression (Northern blot) in C4-2 cells; set-up: The androgen depletion independent (ADI) LNCaP-derived C4-2 cell line was purchased from UroCor; endogenous in cells; host or cells: C4-2
Description: (§1) For androgen response experiments, LNCaP and C4-2 cells were grown in serum-free medium or medium supplemented with 10% charcoal stripped (steroid depleted) serum (CSS) for 48 hours. […] The cells were cultured for an additional 24 hours and then harvested. For C4-2 siRNA-transfection experiments, culture medium was replaced 24 hours post-transfection with RPMI containing 5% CSS. The cells were harvested after 48 hours.
For siRNA transfections, C4-2 cells were seeded at a density of 1.8×10^6 cells on 10 cm dishes in antibiotic-free RPMI 1640 containing 10% FBS. Cells were transfected 24 hours later with 500 pmol of a pool of four siRNAs targeted to the AR (AR SmartPool; Dharmacon, Lafayette, Colo.), or a pool of four non-targeted, control siRNAs (Dharmacon) using 25 μg Lipofectamine (Invitrogen, Carlsbad, Calif.) according to the manufacturer's protocol.
Total cellular RNA was isolated using acid-guanidinium phenol/chloroform extraction as described elsewhere (Chomczynski and Sacchi, Anal Biochem. 162:156-9, (1987)). Equal amounts of RNA (15 μg per lane) were fractionated on 1% denaturing formaldehyde-agarose gels. RNA was transferred to Hybond nylon membranes (Amersham, Piscataway, N.J.), UV cross-linked, and then hybridized with cDNA probes specific for PSA or GAPDH labeled with α^32P-dCTP using a RadPrime labeling kit (Invitrogen). […]

AR [3] = target: T1, AR; experiment: PSA mRNA expression (Northern blot) in LNCaP cells; set-up: The androgen depletion independent (ADI) LNCaP-derived C4-2 cell line was purchased from UroCor; endogenous in cells; host or cells: C4-2
Description: as §1
Total cellular RNA was isolated using acid-guanidinium phenol/chloroform extraction as described elsewhere (Chomczynski and Sacchi, Anal Biochem. 162:156-9, (1987)). Equal amounts of RNA (15 μg per lane) were fractionated on 1% denaturing formaldehyde-agarose gels. RNA was transferred to Hybond nylon membranes (Amersham, Piscataway, N.J.), UV cross-linked, and then hybridized with cDNA probes specific for PSA or GAPDH labeled with α^32P-dCTP using a RadPrime labeling kit (Invitrogen). Autoradiography was performed at −80° C. using an intensifier screen (Kodak).

**Q.** How did the “activation of the ARE-driven promoter PSAenh(ARE)E4-LUC” value (AR [1]) turn out when C[C@@H]1CC2=CC(=O)CC[C@@H]2[C@H]2CC[C@@]3(C)[C@@H](CC[C@]3(C)O)[C@@H]21 [mibolerone] was run?
**A.** Its value is “robust activation”.

**Q.** What about the “PSA expression on androgen treatment” value (AR [2]) of the same molecule?
**A.** Its value is “further increased”.

**Q.** And the “PSA mRNA expression on androgen treatment” value (AR [3])?
**A.** Its value is “induced high levels of PSA mRNA expression”.

— patent US20080014584A1, “MODULATING ANDROGEN RECEPTOR ACTIVITY” (MAYO FOUNDATION FOR MEDICAL EDUCATION AND RESEARCH, priority 2006, published 2008)
